Entries after “also recorded” stand apart in the source; their conditions may differ. Where a name gives a salt, the structure may show the parent alone.
assay: Stress experiments (temperature or relative humidity, XRPD after stress); type: physicochemical; settings: 75% RH, 4 days
Description: Stress Experiments. Solids were stressed under different temperature or relative humidity (RH) environments for a measured time period. Specific RH values were achieved by placing the sample inside sealed chambers containing saturated salt solutions. The salt solutions were selected and prepared following an ASTM standard procedure. Samples were analyzed by XRPD immediately after removal from the stress environment.
X-ray powder diffraction analyses were performed on an Inel XRG-3000 diffractometer, equipped with a curved position-sensitive detector with a […] of 120°. Real time data was collected using Cu Kα radiation starting at approximately 4 ° 2θ at a resolution of 0.03 ° 2θ. The tube voltage and amperage were set to 40 kV and 30 mA, respectively. […] Samples were prepared for analysis by packing them into thin-walled glass capillaries. Each capillary was mounted onto a goniometer head that is motorized to permit spinning of the capillary during data acquisition. Instrument calibration was performed daily using a silicon reference standard.

Structure (SMILES)	deliquescence upon storage
CC(C)(C)c1cc(NC(=O)Nc2ccc(-c3cn4c(n3)sc3cc(OCCN5CCOCC5)ccc34)cc2)no1 [Form A of the HBr salt of Compound B1, N-(5-tert-butyl-isoxazol-3-yl)-N′-{4-[7-(2-morpholin-4-yl-ethoxy)imidazo[2,1-b][1,3]benzothiazol-2-yl]phenyl}urea]	does not deliquesce; also recorded: did not deliquesce
CC(C)(C)c1cc(NC(=O)Nc2ccc(-c3cn4c(n3)sc3cc(OCCN5CCOCC5)ccc34)cc2)no1 [Form B of the mesylate salt of Compound B1] [N-(5-tert-butyl-isoxazol-3-yl)-N′-{4-[7-(2-morpholin-4-yl-ethoxy)imidazo[2,1-b][1,3]benzothiazol-2-yl]phenyl}urea]	does not deliquesce; also recorded: did not deliquesce

same assay, conditions: 75% RH, 7 days

Structure (SMILES)	deliquescence upon storage
CC(C)(C)c1cc(NC(=O)Nc2ccc(-c3cn4c(n3)sc3cc(OCCN5CCOCC5)ccc34)cc2)no1 [Form A of the edisylate salt of Compound B1] [N-(5-tert-butyl-isoxazol-3-yl)-N′-{4-[7-(2-morpholin-4-yl-ethoxy)imidazo[2,1-b][1,3]benzothiazol-2-yl]phenyl}urea]	does not deliquesce; also recorded: did not deliquesce
CC(C)(C)c1cc(NC(=O)Nc2ccc(-c3cn4c(n3)sc3cc(OCCN5CCOCC5)ccc34)cc2)no1 [Form A of the napsylate salt of Compound B1] [N-(5-tert-butyl-isoxazol-3-yl)-N′-{4-[7-(2-morpholin-4-yl-ethoxy)imidazo[2,1-b][1,3]benzothiazol-2-yl]phenyl}urea]	does not deliquesce; also recorded: did not deliquesce
CC(C)(C)c1cc(NC(=O)Nc2ccc(-c3cn4c(n3)sc3cc(OCCN5CCOCC5)ccc34)cc2)no1 [Form B of the besylate salt of Compound B1] [N-(5-tert-butyl-isoxazol-3-yl)-N′-{4-[7-(2-morpholin-4-yl-ethoxy)imidazo[2,1-b][1,3]benzothiazol-2-yl]phenyl}urea]	does not deliquesce; also recorded: did not deliquesce
CC(C)(C)c1cc(NC(=O)Nc2ccc(-c3cn4c(n3)sc3cc(OCCN5CCOCC5)ccc34)cc2)no1 [Form B of the esylate salt of Compound B1] [N-(5-tert-butyl-isoxazol-3-yl)-N′-{4-[7-(2-morpholin-4-yl-ethoxy)imidazo[2,1-b][1,3]benzothiazol-2-yl]phenyl}urea]	does not deliquesce; also recorded: did not deliquesce
CC(C)(C)c1cc(NC(=O)Nc2ccc(-c3cn4c(n3)sc3cc(OCCN5CCOCC5)ccc34)cc2)no1 [Form B of the napsylate salt of Compound B1] [N-(5-tert-butyl-isoxazol-3-yl)-N′-{4-[7-(2-morpholin-4-yl-ethoxy)imidazo[2,1-b][1,3]benzothiazol-2-yl]phenyl}urea]	does not deliquesce; also recorded: did not deliquesce

same assay, conditions: 75% RH, ambient temperature, 5 days

Structure (SMILES)	deliquescence upon storage
CC(C)(C)c1cc(NC(=O)Nc2ccc(-c3cn4c(n3)sc3cc(OCCN5CCOCC5)ccc34)cc2)no1 [Form A of the mesylate salt of Compound B1] [N-(5-tert-butyl-isoxazol-3-yl)-N′-{4-[7-(2-morpholin-4-yl-ethoxy)imidazo[2,1-b][1,3]benzothiazol-2-yl]phenyl}urea]	does not deliquesce; also recorded: did not deliquesce
CC(C)(C)c1cc(NC(=O)Nc2ccc(-c3cn4c(n3)sc3cc(OCCN5CCOCC5)ccc34)cc2)no1 [Form B of the tosylate salt of Compound B1] [N-(5-tert-butyl-isoxazol-3-yl)-N′-{4-[7-(2-morpholin-4-yl-ethoxy)imidazo[2,1-b][1,3]benzothiazol-2-yl]phenyl}urea]	does not deliquesce; also recorded: did not deliquesce

Reference: patent US9585892B2, “Solid forms comprising N-(5-tert-butyl-isoxazol-3-yl)-N′-{4-[7-(2-morpholin-4-yl-ethoxy)imidazo[2,1-b][1,3]benzothiazol-2-yl]phenyl}urea, compositions thereof, and uses therewith” (AMBIT BIOSCIENCES CORPORATION, priority 2007, dated 2017)
